Numbers after ± are expanded uncertainties.
Assay: refractive index (Na D-line) (dimensionless); wn = mass fraction of the nth substance listed
Details: 101.33 kPa, Liquid, Standard Abbe refractometry

CC(O)CO (configuration not stated) [1,2-propanediol] + O
refractive index
Details | 278.15 K | 283.15 K | 288.15 K | 293.15 K | 298.15 K | 303.15 K | 308.15 K | 313.15 K | 318.15 K
w1 = 0.0988 | 1.3458 ± 0.001 | 1.3454 ± 0.001 | 1.3449 ± 0.001 | 1.3444 ± 0.001 | 1.3432 ± 0.001 | 1.3432 ± 0.001 | 1.3424 ± 0.001 | 1.3416 ± 0.001 | 1.3408 ± 0.001
w1 = 0.198 | 1.3578 ± 0.001 | 1.3571 ± 0.001 | 1.3564 ± 0.001 | 1.3557 ± 0.001 | 1.355 ± 0.001 | 1.3542 ± 0.001 | 1.3534 ± 0.001 | 1.3534 ± 0.001 | 1.3516 ± 0.001
w1 = 0.3312 | 1.374 ± 0.001 | 1.373 ± 0.001 | 1.372 ± 0.001 | 1.371 ± 0.001 | 1.3699 ± 0.001 | 1.3689 ± 0.001 | 1.368 ± 0.001 | 1.3671 ± 0.001 | 1.366 ± 0.001
w1 = 0.5005 | 1.3946 ± 0.001 | 1.3932 ± 0.001 | 1.3918 ± 0.001 | 1.3903 ± 0.001 | 1.3889 ± 0.001 | 1.3874 ± 0.001 | 1.3862 ± 0.001 | 1.3851 ± 0.001 | 1.384 ± 0.001
w1 = 0.672 | 1.4112 ± 0.001 | 1.4098 ± 0.001 | 1.4084 ± 0.001 | 1.4069 ± 0.001 | 1.4054 ± 0.001 | 1.4039 ± 0.001 | 1.4024 ± 0.001 | 1.4008 ± 0.001 | 1.3994 ± 0.001
w1 = 0.8044 | 1.4231 ± 0.001 | 1.4216 ± 0.001 | 1.42 ± 0.001 | 1.4184 ± 0.001 | 1.4168 ± 0.001 | 1.415 ± 0.001 | 1.4135 ± 0.001 | 1.4119 ± 0.001 | 1.4103 ± 0.001
w1 = 0.9481 | 1.4343 ± 0.001 | 1.4328 ± 0.001 | 1.4312 ± 0.001 | 1.4296 ± 0.001 | 1.428 ± 0.001 | 1.4264 ± 0.001 | 1.4248 ± 0.001 | 1.4231 ± 0.001 | 1.4214 ± 0.001
w1 = 1 | 1.438 ± 0.001 | 1.4364 ± 0.001 | 1.4348 ± 0.001 | 1.4332 ± 0.001 | 1.4315 ± 0.001 | 1.4299 ± 0.001 | 1.4281 ± 0.001 | 1.4264 ± 0.001 | 1.4247 ± 0.001

OCCCO [propan-1,3-diol] + O
refractive index
Details | w1 = 0.1113 | w1 = 0.2226 | w1 = 0.334 | w1 = 0.4453 | w1 = 0.501 | w1 = 0.6123 | w1 = 0.7236 | w1 = 0.8349 | w1 = 0.9277 | w1 = 1
278.15 K | 1.3466 ± 0.001 | 1.3599 ± 0.001 | 1.374 ± 0.001 | 1.3866 ± 0.001 | 1.3931 ± 0.001 | 1.4066 ± 0.001 | 1.4181 ± 0.001 | 1.4289 ± 0.001 | 1.4371 ± 0.001 | 1.4436 ± 0.001
283.15 K | 1.3462 ± 0.001 | 1.3592 ± 0.001 | 1.3729 ± 0.001 | 1.3856 ± 0.001 | 1.3921 ± 0.001 | 1.4055 ± 0.001 | 1.4169 ± 0.001 | 1.4276 ± 0.001 | 1.4358 ± 0.001 | 1.4423 ± 0.001
288.15 K | 1.3457 ± 0.001 | 1.3586 ± 0.001 | 1.3719 ± 0.001 | 1.3845 ± 0.001 | 1.391 ± 0.001 | 1.4041 ± 0.001 | 1.4157 ± 0.001 | 1.4263 ± 0.001 | 1.4345 ± 0.001 | 1.4409 ± 0.001
293.15 K | 1.3452 ± 0.001 | 1.3579 ± 0.001 | 1.371 ± 0.001 | 1.3835 ± 0.001 | 1.3899 ± 0.001 | 1.4029 ± 0.001 | 1.4145 ± 0.001 | 1.425 ± 0.001 | 1.4332 ± 0.001 | 1.4395 ± 0.001
298.15 K | 1.3446 ± 0.001 | 1.3572 ± 0.001 | 1.3702 ± 0.001 | 1.3825 ± 0.001 | 1.3888 ± 0.001 | 1.4015 ± 0.001 | 1.4133 ± 0.001 | 1.4237 ± 0.001 | 1.4319 ± 0.001 | 1.4381 ± 0.001
303.15 K | 1.344 ± 0.001 | 1.3564 ± 0.001 | 1.3693 ± 0.001 | 1.3815 ± 0.001 | 1.3876 ± 0.001 | 1.4002 ± 0.001 | 1.4118 ± 0.001 | 1.4224 ± 0.001 | 1.4304 ± 0.001 | 1.4368 ± 0.001
308.15 K | 1.3434 ± 0.001 | 1.3558 ± 0.001 | 1.3684 ± 0.001 | 1.3804 ± 0.001 | 1.3865 ± 0.001 | 1.3989 ± 0.001 | 1.4103 ± 0.001 | 1.4211 ± 0.001 | 1.4289 ± 0.001 | 1.4354 ± 0.001
313.15 K | 1.3426 ± 0.001 | 1.355 ± 0.001 | 1.3676 ± 0.001 | 1.3793 ± 0.001 | 1.3854 ± 0.001 | 1.3977 ± 0.001 | 1.4089 ± 0.001 | 1.4197 ± 0.001 | 1.4275 ± 0.001 | 1.434 ± 0.001
318.15 K | 1.3418 ± 0.001 | 1.3541 ± 0.001 | 1.3668 ± 0.001 | 1.3782 ± 0.001 | 1.3845 ± 0.001 | 1.3965 ± 0.001 | 1.4075 ± 0.001 | 1.4182 ± 0.001 | 1.4261 ± 0.001 | 1.4325 ± 0.001

Source: the NIST ThermoML archive (doi:10.1021/acs.jced.8b00403)
